Where “and” joins values, the source holds several entries; their conditions need not be identical. Identical values can stand only once.
Assays:
[1] = target: T1, Fluc (Photinus pyralis, UniProt P08659); settings: with Fluc; cited from earlier work
[2] = target: T1, Fluc; assay: BL emission spectra of luciferase-luciferin reactions; assay type: biochemical; settings: 100 mM HEPES pH 8.0, 25 °C
Method: (§1) 1.5 Bioluminescence characterizations
(§2) Reactions of luciferases, including Photinus pyralis luciferase (Fluc), Phrixothrix hirtus luciferase (SLR), Pyrearinus termitilluminans […]
(§3) mM D-LH 2 analogues, 3 mM ATP, 6 mM MgCl2, and 10 µM luciferase in 0.2 ml of 100 mM HEPES-NaOH pH 8.0. The bioluminescence (BL) emission characteristics were recorded using a microplate reader in a BL mode (Thermo Scientific, Varioskan, LUX multimode). […]
(§4) sphere-based multichannel spectrometer with a charge-coupled device (CCD) detector. […]

[3] = tested on: SLR; assay: as above; assay type: biochemical, Phrixothrix hirtus; settings: 100 mM HEPES pH 8.0, 25 °C
Method: as §1, §2, §3, §4

[4] = tested on: Eluc; assay: as above; assay type: biochemical, Pyrearinus termitilluminans; settings: 100 mM HEPES pH 8.0, 25 °C
Method: as §1, §2, §3, §4

[5] = tested on: Pmluc-WT; assay: as above; assay type: biochemical, Pyrocoelia miyako; settings: 100 mM HEPES pH 8.0, 25 °C
Method: as §1, §2, §3, §4

[6] = tested on: Pmluc-N230S; assay: as above; assay type: biochemical, Pyrocoelia miyako; settings: 100 mM HEPES pH 8.0, 25 °C
Method: mM D-LH 2 analogues, 3 mM ATP, 6 mM MgCl2, and 10 µM luciferase in 0.2 ml of 100 mM HEPES-NaOH pH 8.0. The bioluminescence (BL) emission characteristics were recorded using a microplate reader in a BL mode (Thermo Scientific, Varioskan, LUX multimode). A digital single-lens reflex (DSLR) camera (Nikon D80, CCD sensor) with a 30-second exposure period was used to capture the BL images.
were selected to investigate their BL emission spectra with luciferases including Fluc, SLR, Pmluc-WT, Pmluc-N230S using an integrating sphere-based multichannel spectrometer with a charge-coupled device (CCD) detector.

[7] = target: T1, Fluc; assay: Steady-state kinetics of luciferase reactions (luminometer); assay type: biochemical; settings: for appKm: pH 8.0, 25 °C; for Relative kcat: relative to 2a compound
Method: as §1, §2, §3
BL of the
(§5) The reactions were initiated by mixing 25 µl of premixed solution of luciferases/D-LH 2 analogues with 125 µl of 3 mM ATP and 6 mM MgCl2 in 100 mM HEPES-NaOH (pH 8.0). The light intensity (relative light unit, RLU) during 0-300 sec was then collected to represent the overall luciferase activity which was further used for calculating kinetic parameters from the Michaelis-Menten equation. […]

[8] = tested on: SLR; assay: as above; assay type: biochemical, Phrixothrix hirtus; settings: for appKm: pH 8.0, 25 °C; for Relative kcat: relative to 2a compound
Method: as §1, §2, §3
BL of the
as §5

[9] = tested on: Eluc; assay: as above; assay type: biochemical, Pyrearinus termitilluminans; settings: for appKm: pH 8.0, 25 °C; for Relative kcat: relative to 2a compound
Method: as §1, §2, §3
BL of the
as §5

[10] = tested on: Pmluc-WT; assay: as above; assay type: biochemical, Pyrocoelia miyako; settings: for appKm: pH 8.0, 25 °C; for Relative kcat: relative to 2a compound
Method: as §1, §2, §3
BL of the
as §5

[11] = tested on: Pmluc-N230S; assay: as above; assay type: biochemical, Pyrocoelia miyako; settings: Pmluc-N230S; for appKm: pH 8.0, 25 °C; for Relative kcat: relative to 2a compound
Method: as §1, §2, §3
BL of the
as §5

[12] = target: T1, Fluc; assay: biochemical; assay type: binding; settings: ITC
[13] = target: T1, Fluc; assay: Stopped-flow luminometry, single turnover light formation and decay; assay type: biochemical; settings: Fluc single turnover, 25 °C
Method: 1.5 Bioluminescence characterizations […]
One syringe was filled with a solution of 50 µM Fluc, 3 mM ATP, and 6 mM
in both syringes were mixed by a stopped-flow device and measured the light emission at 25 °C in triplicate. […]
2.8 Investigation of bioluminescence kinetics using stopped-flow luminometry
reactions were investigated using a stopped-flow spectrophotometer (employing a light-off mode for detecting the luminescence). One

[14] = Absorption and fluorescence spectra of luciferins; assay type: physicochemical; settings: 100 mM HEPES pH 8.0, 25 °C
Method: 2.6 Spectra of firefly luciferins
spectrophotometer (Agilent technologies, Cary 100 UV Vis, Cary Series UV-Vis Spectrophotometer).
were recorded by a microplate reader (Thermo Scientific, Varioskan, LUX multimode) in fluorescence mode. The reactions of D-LH 2 […]
Supplementary Table S5. […]
[e] ND denotes “not detectable”. […]

[15] = target: Fluc-ApCPP complex (Photinus pyralis, UniProt P08659); assay: biochemical; assay type: binding; settings: ITC
Sequence of Fluc-ApCPP complex (P08659 whole entry, one chain of several): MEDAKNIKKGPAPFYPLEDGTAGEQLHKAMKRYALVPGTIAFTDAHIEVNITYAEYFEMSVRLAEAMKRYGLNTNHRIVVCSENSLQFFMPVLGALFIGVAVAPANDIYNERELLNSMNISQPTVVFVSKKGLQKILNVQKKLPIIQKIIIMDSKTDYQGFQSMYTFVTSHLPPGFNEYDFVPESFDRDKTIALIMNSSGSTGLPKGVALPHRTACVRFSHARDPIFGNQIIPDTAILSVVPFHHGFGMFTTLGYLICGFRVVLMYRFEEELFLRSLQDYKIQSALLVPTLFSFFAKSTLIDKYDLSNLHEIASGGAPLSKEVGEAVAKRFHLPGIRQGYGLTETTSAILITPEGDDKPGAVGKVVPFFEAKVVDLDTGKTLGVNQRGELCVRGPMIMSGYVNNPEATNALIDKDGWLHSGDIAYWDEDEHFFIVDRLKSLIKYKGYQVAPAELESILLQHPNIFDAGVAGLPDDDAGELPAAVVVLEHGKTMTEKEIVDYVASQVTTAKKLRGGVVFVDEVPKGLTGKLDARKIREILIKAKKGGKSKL

[16] = tested on: luciferases; settings: cited from earlier work
[17] = concentration range tested 0-300

T1 sequence (P08659 whole entry): as the sequence (P08659 whole entry, one chain of several) above

Compound | Bioluminescence wavelength (BLλ) [2] | Bioluminescence wavelength (BLλ) [3] [nm] | Bioluminescence wavelength (BLλ) [4] [nm] | Bioluminescence wavelength (BLλ) [5] [nm] | Bioluminescence wavelength (BLλ) [6] [nm] | appKm [7] [µM] | Relative kcat [7] | appKm [8] [µM] | Relative kcat [8] | appKm [9] [µM] | Relative kcat [9] | appKm [10] [µM] | Relative kcat [10] | appKm [11] [µM] | Relative kcat [11] | Absorption (λmax) [14] [nm] | Fluorescence (λem) [14] | other results
CN(C)c1ccc(/C=C/C=C/C2=N[C@@H](C(=O)O)CS2)cc1.Cl [AkaLumine–HCl] | – | – | – | – | – | – | – | – | – | – | – | – | – | – | – | – | – | Quantum yield [1]: 4.0 ± 0.5%
COc1cc2nc(C3=N[C@@H](C(=O)O)CS3)sc2c(OC)c1O [Compound 2d, 5′,7′-dimethoxy-D-luciferin] | 625 nm | > 630 | 596 | 582 | 646 | 0.2 | 1.3 | 5.0 | 0.8 | 34.7 | 0.1 | 0.2 | ~ 0.02 | 13.3 | 0.2 | 412 | – | Bioluminescence wavelength (BLλ) ([3]; listed as 5′,7′-dimethoxy-D-LH2): 663 nm; Substrate inhibition [7, 17]: > 0.8 µM; Substrate inhibition [8, 17]: > 16.6 µM; Substrate inhibition [10, 17]: > 0.8 µM; N site [12]: 0.42; G (free energy of binding) ([12]; 25 °C): -6.18 kcal/mol; H (enthalpy of binding) ([12]; 25 °C): -5.24 kcal/mol; Kd ([12]; Table S9): 30.4 µM; Observed rate constant (kobs) Light decay Faster phase [13]: 0.50 ± 0.00 s⁻¹; Observed rate constant (kobs) Light formation [13]: 8.13 ± 0.08 s⁻¹
Cc1cc(O)c(C)c2sc(C3=N[C@@H](C(=O)O)CS3)nc12 [Compound 2e, 4′,7′-dimethyl-D-LH2] | 636 nm | 644 | 583 | 637 | 631 | 7.1 | 1.0 | 9.0 | 5.5 | 19.1 | 0.2 | 10.2 | 1.2 | 6.6 | 6.3 | 330 | 560 nm and 523–560 nm | Kd ([15]; 25 °C, preformed Fluc-ApCPP complex, read-out: Dissociation constant (Kd) Fluc-ApCPP: Luciferin): 864 ± 7 µM; N site ([15]; Fluc-ApCCP): 0.90; G (free energy of binding) ([15]; Fluc-ApCCP, 25 °C): -4.41 kcal/mol; H (enthalpy of binding) ([15]; Fluc-ApCCP, 25 °C): -80.0 kcal/mol
Cc1c(O)c2ccccc2c2nc(C3=N[C@@H](C(=O)O)CS3)sc12 [Compound 2f, 7′-methylnaphthol-D-luciferin] | 648 nm and > 630 nm | 634 | 557 | – | – | 2.7 | 0.1 | 11.6 | 1.1 | 24.7 | 0.0 | – | – | – | ~ 0.01 | 437 | 580 nm | –
infraluciferin | – | – | – | – | – | – | – | – | – | – | – | – | – | – | – | – | – | Longest BL wavelength [16]: > 700 nm
